Reference: ChEMBL document CHEMBL1201862, “PubChem BioAssay data set” (2004)
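Growth conditions: 96-well plates. Treatment: test compound, 48 hours, 5 concentrations. Analysis: linear interpolation between bracketing concentrations; unreached endpoints set to highest concentration. GI50: concentration for 50% inhibition of growth.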 Activity calls are given as the source filed them. Cut-off read from the data, not from the text of the source: active = GI50 up to about 1.1 µM and inactive = higher.

Legend:
Assay in all cases: inhibition of tumour cell growth, NCI panel, 48 h
SR = tested on: SR
HOP-62 = tested on: HOP-62
UACC-62 = tested on: UACC-62
NCI-H522 = tested on: NCI-H522
SNB-75 = tested on: SNB-75
786-0 = tested on: 786-0
HCT-116 = tested on: HCT-116
RXF 393 = tested on: RXF 393
M14 = tested on: M14
MOLT-4 = tested on: MOLT-4
UO-31 = tested on: UO-31
NCI/ADR-RES = tested on: NCI/ADR-RES
ACHN = tested on: ACHN
OVCAR-5 = tested on: OVCAR-5
HCT-15 = tested on: HCT-15
OVCAR-4 = tested on: OVCAR-4
OVCAR-3 = tested on: OVCAR-3
Malme-3M = tested on: Malme-3M
MDA-N = tested on: MDA-N
U-251 = tested on: U-251
DU-145 = tested on: DU-145
EKVX = tested on: EKVX
CAKI-1 = tested on: CAKI-1
NCI-H23 = tested on: NCI-H23
HOP-92 = tested on: HOP-92
T47D = tested on: T47D
A498 = tested on: A498
HT-29 = tested on: HT-29
SN12C = tested on: SN12C
UACC-257 = tested on: UACC-257
SK-MEL-28 = tested on: SK-MEL-28
Hs-578T = tested on: Hs-578T
HCC 2998 = tested on: HCC 2998
K562 = tested on: K562
LOX IMVI = tested on: LOX IMVI
KM12 = tested on: KM12
A549 = tested on: A549
SF-268 = tested on: SF-268
IGROV-1 = tested on: IGROV-1
BT-549 = tested on: BT-549
PC-3 = tested on: PC-3
TK-10 = tested on: TK-10
NCI-H460 = tested on: NCI-H460
MDA-MB-231 = tested on: MDA-MB-231
SF-295 = tested on: SF-295
SW-620 = tested on: SW-620
SNB-19 = tested on: SNB-19
OVCAR-8 = tested on: OVCAR-8
SK-MEL-2 = tested on: SK-MEL-2
MDA-MB-435 = tested on: MDA-MB-435
RPMI-8226 = tested on: RPMI-8226
SK-MEL-5 = tested on: SK-MEL-5
SK-OV-3 = tested on: SK-OV-3
COLO 205 = tested on: COLO 205
HL-60 = tested on: HL-60
NCI-H226 = tested on: NCI-H226
SF-539 = tested on: SF-539
CCRF-CEM = tested on: CCRF-CEM
MCF7 = tested on: MCF7

O=C(N/N=C\c1cccc(O)c1)c1ccncc1
GI50 (SR): > 100 µM (inactive)
GI50 (HOP-62): > 100 µM (inactive)
GI50 (UACC-62): > 100 µM (inactive)
GI50 (NCI-H522): > 100 µM (inactive)
GI50 (SNB-75): > 100 µM (inactive)
GI50 (786-0): > 100 µM (inactive)
GI50 (HCT-116): > 100 µM (inactive)
GI50 (RXF 393): > 100 µM (inactive)
GI50 (M14): > 100 µM (inactive)
GI50 (MOLT-4): > 100 µM (inactive)
GI50 (UO-31): > 100 µM (inactive)
GI50 (NCI/ADR-RES): > 100 µM (inactive)
GI50 (ACHN): > 100 µM (inactive)
GI50 (OVCAR-5): > 100 µM (inactive)
GI50 (HCT-15): > 100 µM
GI50 (OVCAR-4): > 100 µM (inactive)
GI50 (OVCAR-3): > 100 µM (inactive)
GI50 (Malme-3M): > 100 µM (inactive)
GI50 (MDA-N): > 100 µM (inactive)
GI50 (U-251): > 100 µM (inactive)
GI50 (DU-145): > 100 µM (inactive)
GI50 (EKVX): > 100 µM (inactive)
GI50 (CAKI-1): > 100 µM (inactive)
GI50 (NCI-H23): > 100 µM (inactive)
GI50 (HOP-92): > 100 µM (inactive)
GI50 (T47D): > 100 µM (inactive)
GI50 (A498): > 100 µM (inactive)
GI50 (HT-29): > 100 µM (inactive)
GI50 (SN12C): > 100 µM (inactive)
GI50 (UACC-257): > 100 µM (inactive)
GI50 (SK-MEL-28): > 100 µM (inactive)
GI50 (Hs-578T): > 100 µM (inactive)
GI50 (HCC 2998): > 100 µM (inactive)
GI50 (K562): > 100 µM (inactive)
GI50 (LOX IMVI): > 100 µM (inactive)
GI50 (KM12): > 100 µM (inactive)
GI50 (A549): > 100 µM (inactive)
GI50 (SF-268): > 100 µM (inactive)
GI50 (IGROV-1): > 100 µM (inactive)
GI50 (BT-549): > 100 µM (inactive)
GI50 (PC-3): > 100 µM (inactive)
GI50 (TK-10): > 100 µM (inactive)
GI50 (NCI-H460): > 100 µM (inactive)
GI50 (MDA-MB-231): > 100 µM (inactive)
GI50 (SF-295): > 100 µM (inactive)
GI50 (SW-620): > 100 µM (inactive)
GI50 (SNB-19): > 100 µM (inactive)
GI50 (OVCAR-8): > 100 µM (inactive)
GI50 (SK-MEL-2): > 100 µM (inactive)
GI50 (MDA-MB-435): > 100 µM (inactive)

Cc1ccc(S(=O)(=O)C2=Cc3ccccc3C2(O)c2ccccc2)cc1 (stereo not drawn)
GI50 (SR): 22.2 µM (inactive)
GI50 (RPMI-8226): 15.8 µM (inactive)
GI50 (HOP-62): > 10 µM (inactive)
GI50 (NCI-H522): 21.5 µM (inactive)
GI50 (SNB-75): 31 µM (inactive)
GI50 (786-0): > 10 µM (inactive)
GI50 (SK-MEL-5): 16.6 µM (inactive)
GI50 (HCT-116): 33.3 µM (inactive)
GI50 (M14): 13.5 µM (inactive)
GI50 (MOLT-4): 29.2 µM (inactive)
GI50 (SK-OV-3): 29.3 µM (inactive)
GI50 (COLO 205): 24.5 µM (inactive)
GI50 (NCI/ADR-RES): 25.5 µM (inactive)
GI50 (ACHN): 34.3 µM (inactive)
GI50 (OVCAR-5): 60.4 µM (inactive)
GI50 (HCT-15): 32.7 µM
GI50 (MDA-N): 18.7 µM (inactive)
GI50 (U-251): 26.7 µM (inactive)
GI50 (DU-145): 34.8 µM (inactive)
GI50 (EKVX): 24.9 µM (inactive)
GI50 (NCI-H23): 37.2 µM (inactive)
GI50 (T47D): 34.3 µM (inactive)
GI50 (A498): > 10 µM (inactive)
GI50 (HT-29): 19.7 µM (inactive)
GI50 (HL-60): 13.2 µM (inactive)
GI50 (SN12C): 17.4 µM (inactive)
GI50 (UACC-257): > 10 µM (inactive)
GI50 (SK-MEL-28): 16.3 µM (inactive)
GI50 (Hs-578T): 22.6 µM (inactive)
GI50 (NCI-H226): 29.3 µM (inactive)
GI50 (HCC 2998): 10.4 µM (inactive)
GI50 (K562): 25.1 µM (inactive)
GI50 (LOX IMVI): 17.6 µM (inactive)
GI50 (KM12): 21.4 µM (inactive)
GI50 (A549): 32.2 µM (inactive)
GI50 (SF-539): 24 µM (inactive)
GI50 (SF-268): 27.2 µM (inactive)
GI50 (IGROV-1): 47.1 µM (inactive)
GI50 (BT-549): 24 µM (inactive)
GI50 (PC-3): 27.4 µM (inactive)
GI50 (TK-10): 35.3 µM (inactive)
GI50 (CCRF-CEM): 15.7 µM (inactive)
GI50 (NCI-H460): 22.7 µM (inactive)
GI50 (MDA-MB-231): 17.7 µM (inactive)
GI50 (SF-295): 25.4 µM (inactive)
GI50 (SW-620): 29.8 µM (inactive)
GI50 (SNB-19): 43.8 µM (inactive)
GI50 (OVCAR-8): 22.8 µM (inactive)
GI50 (SK-MEL-2): 15.4 µM (inactive)
GI50 (MDA-MB-435): 30.8 µM (inactive)

COc1ccc2c(-c3csc(-c4c[nH]c5ccc(Br)cc45)n3)c[nH]c2c1
GI50 (RPMI-8226): 27.1 µM (inactive)
GI50 (MCF7): 54.1 µM (inactive)
GI50 (HOP-62): 62.4 µM (inactive)
GI50 (UACC-62): > 100 µM (inactive)
GI50 (NCI-H522): 23.1 µM (inactive)
GI50 (786-0): 27.4 µM (inactive)
GI50 (SK-MEL-5): > 100 µM (inactive)
GI50 (HCT-116): 31.3 µM (inactive)
GI50 (RXF 393): 11.9 µM (inactive)
GI50 (M14): > 100 µM (inactive)
GI50 (MOLT-4): 23 µM (inactive)
GI50 (UO-31): > 100 µM (inactive)
GI50 (COLO 205): 54.1 µM (inactive)
GI50 (NCI/ADR-RES): 90.6 µM (inactive)
GI50 (ACHN): 70 µM (inactive)
GI50 (OVCAR-5): 42.8 µM (inactive)
GI50 (HCT-15): 7.53 µM
GI50 (OVCAR-4): 70.5 µM (inactive)
GI50 (OVCAR-3): > 100 µM (inactive)
GI50 (Malme-3M): 17.5 µM (inactive)
GI50 (MDA-N): 8.26 µM (inactive)
GI50 (U-251): 25.1 µM (inactive)
GI50 (DU-145): > 100 µM (inactive)
GI50 (EKVX): 32.1 µM (inactive)
GI50 (CAKI-1): 85.7 µM (inactive)
GI50 (NCI-H23): 64.9 µM (inactive)
GI50 (HOP-92): 64.3 µM (inactive)
GI50 (T47D): 59.3 µM (inactive)
GI50 (A498): 89.3 µM (inactive)
GI50 (HT-29): 77.6 µM (inactive)
GI50 (SN12C): 58.1 µM (inactive)
GI50 (UACC-257): 88.9 µM (inactive)
GI50 (SK-MEL-28): > 100 µM (inactive)
GI50 (Hs-578T): 74.1 µM (inactive)
GI50 (NCI-H226): 45.4 µM (inactive)
GI50 (K562): 15.2 µM (inactive)
GI50 (LOX IMVI): 64.1 µM (inactive)
GI50 (KM12): 43.6 µM (inactive)
GI50 (A549): 91.8 µM (inactive)
GI50 (SF-268): 25.9 µM (inactive)
GI50 (IGROV-1): 81.5 µM (inactive)
GI50 (BT-549): 67.3 µM (inactive)
GI50 (PC-3): 10.4 µM (inactive)
GI50 (TK-10): 49 µM (inactive)
GI50 (CCRF-CEM): 27.7 µM (inactive)
GI50 (NCI-H460): 23.2 µM (inactive)
GI50 (MDA-MB-231): 13.9 µM (inactive)
GI50 (SF-295): 73.5 µM (inactive)
GI50 (SW-620): > 100 µM (inactive)
GI50 (SNB-19): > 100 µM (inactive)
GI50 (OVCAR-8): > 100 µM (inactive)
GI50 (SK-MEL-2): 19.1 µM (inactive)
GI50 (MDA-MB-435): 7.69 µM (inactive)
